The record followed here is patent publication US20210395239A1 (Hoffmann-La Roche Inc., priority 2018, published 2021).

The experiment addresses T1, hTLR9 (Homo sapiens, UniProt Q9NR96).
T1 sequence (Q9NR96 26-1032): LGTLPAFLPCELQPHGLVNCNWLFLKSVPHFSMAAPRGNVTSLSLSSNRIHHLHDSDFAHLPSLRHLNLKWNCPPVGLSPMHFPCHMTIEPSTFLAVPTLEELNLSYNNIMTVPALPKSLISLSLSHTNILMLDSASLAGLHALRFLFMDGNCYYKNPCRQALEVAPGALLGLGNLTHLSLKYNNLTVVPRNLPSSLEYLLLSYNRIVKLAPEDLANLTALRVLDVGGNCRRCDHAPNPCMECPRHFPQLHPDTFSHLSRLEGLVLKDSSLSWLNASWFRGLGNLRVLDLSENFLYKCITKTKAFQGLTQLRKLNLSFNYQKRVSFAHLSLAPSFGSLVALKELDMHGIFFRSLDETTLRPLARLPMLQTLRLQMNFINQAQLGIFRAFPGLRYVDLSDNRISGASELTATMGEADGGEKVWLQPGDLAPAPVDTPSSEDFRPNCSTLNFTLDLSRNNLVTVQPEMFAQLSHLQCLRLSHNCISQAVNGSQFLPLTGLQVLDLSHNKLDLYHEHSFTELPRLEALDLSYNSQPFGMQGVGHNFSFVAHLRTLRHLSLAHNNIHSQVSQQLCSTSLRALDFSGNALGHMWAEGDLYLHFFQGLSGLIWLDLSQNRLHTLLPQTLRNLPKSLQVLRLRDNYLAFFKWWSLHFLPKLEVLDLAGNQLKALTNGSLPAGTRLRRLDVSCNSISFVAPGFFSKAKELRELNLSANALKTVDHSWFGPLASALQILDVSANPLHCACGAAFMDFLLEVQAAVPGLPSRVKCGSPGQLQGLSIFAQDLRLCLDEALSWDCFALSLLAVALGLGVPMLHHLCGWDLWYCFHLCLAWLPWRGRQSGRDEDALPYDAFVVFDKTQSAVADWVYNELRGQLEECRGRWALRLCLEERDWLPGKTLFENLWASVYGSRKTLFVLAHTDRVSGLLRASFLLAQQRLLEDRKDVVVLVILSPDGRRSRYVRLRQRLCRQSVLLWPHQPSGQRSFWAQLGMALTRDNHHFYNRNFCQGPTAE
In words: HEK293-Blue-hTLR-9 cells assay (SEAP reporter, ODN2006 stimulation). It is filed as cell-based. Further details: host or cells: HEK293 (HEK-Blue hTLR9). Conditions: HEK293-Blue-hTLR9 cells, ODN2006, 20 hrs; read-out: HEK/hTLR9 IC50. A digest of the protocol:
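Antagonism read as lowered SEAP reporter absorbance (620–655 nm, QUANTI-Blue, 2 h, 37 °C) in supernatants. Before that, ODN2006-stimulated HEK293-Blue cells stably expressing human TLR9 were exposed to compound dilutions at 1% final DMSO for 20 h at 37 °C.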

Each structure is given as a SMILES string.

Consider `Cc1cc(N2CCN(C[C@H]3CN(c4ccc(C#N)c5ncccc45)C[C@@H](C)O3)CC2)nc(N2CC[C@@H](N)[C@@H](F)C2)n1` [Example 78, 5-[(2S,6R)-2-[[4-[2-[(3S,4R)-4-amino-3-fluoro-1-piperidyl]-6-methyl-pyrimidin-4-yl]piperazin-1-yl]methyl]-6-methyl-morpholin-4-yl]quinoline-8-carbonitrile], for which the IC50 amounted to 65 nM.
